Laboratory results as given in US12496290B2, “Method and compounds for treating or preventing autoimmune disorders or immune responses modulated by the expression of IDO1” (The Trustees of Princeton University, priority 2019, dated 2025).

Columns and labels:
ferric cytochrome c = test: Heme protein selectivity, stopped-flow UV-vis: cytochrome c; type: biochemical; settings: pseudo-first-order conditions
Description: (§1) Since hydrogen sulfide and polysulfides are known to react with other heme proteins, the selectivity of 3MI for IDO1 was examined by mixing the substituted indole compounds (such as 3MI) with several other heme proteins and observing their reactions using stopped-flow UV—vis spectrometry.
(§2) The substituted indole compounds had no effect on catalase even at 250 μM, whereas the substituted indole compounds did appear to reduce myoglobin and hemoglobin, producing their oxygen-bound forms. The substituted indole compound were also able to reduce ferric cytochrome c to its distinctive ferrous form. The second-order rate constants of these reactions were determined under pseudo-first-order conditions giving 6.6×10^3, 1.6×10^4, and 2.7×10^5 M^−1 s^−1 for myoglobin, hemoglobin, and cytochrome c, respectively. […] Unlike myoglobin and hemoglobin, the oxy-form of IDO1 was not observed due to the relatively slow reduction of IDO1 by 3MI.

hemoglobin = test: Heme protein selectivity, stopped-flow UV-vis: hemoglobin; type: biochemical; settings: pseudo-first-order conditions
Description: as §1, §2

myoglobin = test: Heme protein selectivity, stopped-flow UV-vis: myoglobin; type: biochemical; settings: pseudo-first-order conditions
Description: as §1, §2

IDO1 = IDO1 (Homo sapiens, UniProt P14902); test: IDO1 activity assay, N-formylkynurenine absorbance at 321 nm; type: biochemical
Sequence of IDO1 (P14902 whole entry): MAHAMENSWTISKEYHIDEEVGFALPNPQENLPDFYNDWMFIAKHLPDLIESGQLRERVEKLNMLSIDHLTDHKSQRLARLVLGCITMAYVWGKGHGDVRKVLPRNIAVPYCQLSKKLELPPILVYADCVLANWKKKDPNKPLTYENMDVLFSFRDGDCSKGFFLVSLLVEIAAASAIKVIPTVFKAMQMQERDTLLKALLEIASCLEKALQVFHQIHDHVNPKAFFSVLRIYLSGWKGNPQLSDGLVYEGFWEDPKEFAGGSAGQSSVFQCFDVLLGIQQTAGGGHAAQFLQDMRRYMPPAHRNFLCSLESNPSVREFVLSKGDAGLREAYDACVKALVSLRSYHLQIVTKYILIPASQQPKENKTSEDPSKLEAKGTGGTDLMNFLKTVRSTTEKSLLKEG
Description: FIG. 6 reflects a system involving IDO1 (50 nM), 0.1 mM L-tryptophan, and 5 mM glutathione in 100 mM sodium phosphate, pH 7.0 with <1 μM 6-chloro-5-fluoro-1H-indole-3-thiol.
The activity of the compounds was determined as follows. UV—vis spectra were recorded using a Hewlett-Packer 8453 diode array spectrophotometer. Activity assays were done at room temperature using 100 mM sodium phosphate, pH 7.0, with 500 nM IDO1 (ε404 nm=172 mM^−1 cm^−1) and 50 μM L-tryptophan. These were initiated by addition of IDO1, and activity was monitored at 321 nm where product N-formylkynurenine absorbs (ε321 nm=3750 M^−1 cm^−1).
The substituted indole compound was prepared daily in a 100 mM stock solution in dimethyl sulfoxide (DMSO), and this was serially diluted to maintain a consistent final concentration of 1% (v/v) DMSO in each assay. To maintain activity, 5 mM reduced glutathione was added to some of these from a 0.5 M stock solution. The substituted indole compound was generally tested from 100 nM to 10 μM. The ability of each compound to serve as a reducing substrate for IDO1 was fit using a Michaelis—Menten equation. […] Above 5 μM 3MI, there was a steep inhibitory effect.

ferric-superoxo IDO1 = ferric-superoxo IDO1 (Homo sapiens, UniProt P14902); test: Double-mixing stopped-flow spectrometry with ferric-superoxo IDO1; type: biochemical; settings: lowest 3MI concentration useful for pseudo-first-order conditions; nearly within instrument mixing time
Sequence of ferric-superoxo IDO1 (P14902 whole entry): as above
Description: The nature of substituted indole compound-inhibition at high concentrations (>5 μM) was examined further with ferric-superoxo IDO1, the active tryptophan-oxidizing species. Ferric-superoxo IDO1 was generated using double-mixing stopped-flow spectrometry by mixing IDO1 prereduced with 2 mM sodium dithionite into aerobic buffer for 0.5 s. This ferric superoxo species was then mixed in the second push with 3MI that had been maintained in the reduced state using 5 mM glutathione. 3MI readily reacted with ferric-superoxo IDO1 to form ferric IDO1 without any observable intermediates. This was shown by a fast shift from the ferric-superoxo complex (λmax 415 nm) to the ferric (λmax 404 nm) that was completed nearly within the mixing time of the instrument (<10 ms) even at the lowest concentration of 3MI useful for pseudo-first-order reaction conditions (where 3MI must be at a large excess over IDO1). Following this fast conversion to ferric IDO1, there was a slower shift to the ferric 3MI-bound complex as indicated by the Soret shifting to 424 nm (as in FIG. 4). To account for both reactions, these traces were fit using a double exponential expression.

ferric IDO1 = ferric IDO1 (Homo sapiens, UniProt P14902); test: Stopped-flow UV-vis spectrometry of binding to ferric IDO1
Sequence of ferric IDO1 (P14902 whole entry): as above
Description: FIG. 3 is a graph showing the second-order rate constant of 3MI binding to ferric IDO1 determined by stopped-flow spectrometry.
FIG. 4 is a graph showing stopped-flow UV—vis spectrometry of 3MI (30 μM) binding to IDO1 (1.4 μM) over 0.2 s.
3-Mercaptoindole (3MI) was seen to bind to IDO1 with a fast on-rate of 1.7×10^6 M^−1 s^−1 under pseudo-first-order conditions (See FIG. 3), producing a UV—vis spectrum (see FIG. 4) that has a Soret at 424 nm, a lower peak at 321 nm, and broad q-bands at 537 nm and a shoulder at about 575 nm. […] Note that although 3MI is referred to here, similar results can be seen with other substituted indole compounds disclosed herein.
Using 3MI, there was an initial burst of IDO1 activity, which leveled off after 500 s, well before substrate tryptophan was consumed (FIG. 2, 202). Reduced glutathione was added to the activity assay solutions at nearly cellular concentrations (5 mM) to reduce any oxidized 3MI-disulfide products that may have formed, and this allowed for sustained 3MI-induced IDO1 activity (FIG. 2, 201).

## Sc1c[nH]c2ccccc12 [3MI, 3-Mercaptoindole]
Ferric cytochrome c
  second-order rate constant of reaction (reduction) with cytochrome c: 270000 M⁻¹ s⁻¹
hemoglobin
  second-order rate constant of reaction (reduction) with hemoglobin: 16000 M⁻¹ s⁻¹
myoglobin
  second-order rate constant of reaction (reduction) with myoglobin: 6600 M⁻¹ s⁻¹
IDO1
  concentration above which there was a steep inhibitory effect on IDO1 activity: Above 5 μM
IDO1; 5 mM reduced glutathione added (FIG. 2, 201)
  3MI-induced IDO1 activity with glutathione: sustained
IDO1; 3MI without glutathione (FIG. 2, 202), before tryptophan was consumed
  time after which the initial burst of IDO1 activity leveled off: 500 s
IDO1; FIG. 2
  activation of IDO1: inducing turnover even at nM concentrations
IDO1; single exponential fit of the inhibitory region at higher concentrations, read-out: Ki app (apparent Ki at half-activity)
  Ki: 8 ± 3 µM
ferric-superoxo IDO1
  time to complete the shift from ferric-superoxo complex to ferric IDO1: < 10 ms
Ferric IDO1; IDO1 versus cytochrome c
  selectivity: IDO1 binding rate constant exceeding that of the cytochrome c reduction: an order of magnitude
Ferric IDO1; pseudo-first-order conditions, stopped-flow, ferric IDO1, read-out: on-rate / second-order rate constant of binding to IDO1
  kon: 1.7e+06 M⁻¹ s⁻¹

## Fc1cc2c(S)c[nH]c2cc1Cl [6-chloro-5-fluoro-1H-indole-3-thiol]
IDO1; IDO1 50 nM, 0.1 mM L-tryptophan, 5 mM glutathione, 100 mM sodium phosphate pH 7.0, <1 μM compound, background subtracted
  IDO1 activity, product N-formylkynurenine absorbance at 321 nm over time (FIG. 6): increase in absorbance
